Measurements taken from ChEMBL document CHEMBL3991601, “The target landscape of clinical kinase drugs” (Science, 2017).
pKd: −log10 of the molar value. Counter-ions that a name gives are not always drawn. Active and inactive are the calls of the source.

Experiments:
[1] = biological target: T1, Acyl-CoA dehydrogenase family member 10 (Homo sapiens, UniProt Q6JQN1)
T1 sequence (Q6JQN1 whole entry): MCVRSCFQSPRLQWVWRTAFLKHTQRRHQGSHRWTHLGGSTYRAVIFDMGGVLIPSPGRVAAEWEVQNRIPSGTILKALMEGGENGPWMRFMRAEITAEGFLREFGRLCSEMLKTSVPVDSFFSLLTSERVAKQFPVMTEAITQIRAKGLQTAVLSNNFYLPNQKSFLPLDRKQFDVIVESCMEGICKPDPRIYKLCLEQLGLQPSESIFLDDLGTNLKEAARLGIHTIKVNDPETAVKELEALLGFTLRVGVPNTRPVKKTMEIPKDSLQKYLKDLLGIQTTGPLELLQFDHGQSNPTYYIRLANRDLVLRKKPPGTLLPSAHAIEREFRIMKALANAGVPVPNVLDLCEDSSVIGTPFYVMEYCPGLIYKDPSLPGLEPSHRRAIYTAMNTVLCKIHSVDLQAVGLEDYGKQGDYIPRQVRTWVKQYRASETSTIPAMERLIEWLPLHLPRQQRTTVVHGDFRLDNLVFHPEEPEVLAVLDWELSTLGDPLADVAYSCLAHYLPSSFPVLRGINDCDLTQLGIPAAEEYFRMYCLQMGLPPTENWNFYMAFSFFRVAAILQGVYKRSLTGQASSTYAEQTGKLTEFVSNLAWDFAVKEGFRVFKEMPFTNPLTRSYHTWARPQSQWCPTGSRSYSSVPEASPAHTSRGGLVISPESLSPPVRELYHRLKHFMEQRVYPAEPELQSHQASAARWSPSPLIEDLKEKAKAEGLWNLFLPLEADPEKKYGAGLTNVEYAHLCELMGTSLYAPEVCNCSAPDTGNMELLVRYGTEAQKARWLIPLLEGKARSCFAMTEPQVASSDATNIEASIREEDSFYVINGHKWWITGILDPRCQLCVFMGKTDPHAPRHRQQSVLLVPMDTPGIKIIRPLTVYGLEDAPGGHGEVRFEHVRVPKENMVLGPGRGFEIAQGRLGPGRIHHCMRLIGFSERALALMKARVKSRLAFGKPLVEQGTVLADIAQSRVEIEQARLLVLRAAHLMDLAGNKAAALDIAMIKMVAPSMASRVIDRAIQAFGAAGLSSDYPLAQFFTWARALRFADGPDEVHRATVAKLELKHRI

[2] = biological target: Bone morphogenetic protein receptor type-1B (Homo sapiens, UniProt O00238)
[3] = biological target: DnaJ homolog subfamily A member 1 (Homo sapiens, UniProt P31689)
[4] = biological target: Proto-oncogene tyrosine-protein kinase receptor Ret (Homo sapiens, UniProt P07949)
Ephrin type-B receptor 6 = biological target: T2, Ephrin type-B receptor 6 (Homo sapiens, UniProt O15197)
T2 sequence (O15197 whole entry): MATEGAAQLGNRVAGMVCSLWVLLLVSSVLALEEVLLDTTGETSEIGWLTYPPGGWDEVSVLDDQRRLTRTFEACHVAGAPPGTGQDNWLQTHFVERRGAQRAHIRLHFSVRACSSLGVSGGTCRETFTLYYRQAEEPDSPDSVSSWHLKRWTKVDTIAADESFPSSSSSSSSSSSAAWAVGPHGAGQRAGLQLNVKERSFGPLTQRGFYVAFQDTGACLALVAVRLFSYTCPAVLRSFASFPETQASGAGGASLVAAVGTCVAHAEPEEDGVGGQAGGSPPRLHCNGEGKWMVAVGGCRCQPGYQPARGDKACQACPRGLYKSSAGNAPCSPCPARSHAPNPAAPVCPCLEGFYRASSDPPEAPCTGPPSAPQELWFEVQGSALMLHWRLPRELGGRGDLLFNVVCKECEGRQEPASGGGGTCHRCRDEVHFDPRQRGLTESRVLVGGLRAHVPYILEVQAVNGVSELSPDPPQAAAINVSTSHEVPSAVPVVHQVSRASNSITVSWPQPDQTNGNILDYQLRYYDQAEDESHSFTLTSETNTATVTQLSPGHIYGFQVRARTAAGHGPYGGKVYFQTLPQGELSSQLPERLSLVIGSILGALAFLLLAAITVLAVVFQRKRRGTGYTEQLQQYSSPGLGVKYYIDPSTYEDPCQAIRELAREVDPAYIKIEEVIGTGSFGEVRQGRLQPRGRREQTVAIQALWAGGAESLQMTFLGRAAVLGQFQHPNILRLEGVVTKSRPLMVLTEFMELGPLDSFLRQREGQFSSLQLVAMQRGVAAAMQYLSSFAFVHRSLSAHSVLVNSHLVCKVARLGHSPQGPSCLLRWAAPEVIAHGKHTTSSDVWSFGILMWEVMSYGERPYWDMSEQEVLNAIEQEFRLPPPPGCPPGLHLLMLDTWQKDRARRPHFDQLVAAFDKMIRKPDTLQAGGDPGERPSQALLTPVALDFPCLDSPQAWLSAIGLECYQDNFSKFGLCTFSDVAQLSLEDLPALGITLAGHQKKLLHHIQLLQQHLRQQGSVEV

[5] = biological target: PAS domain-containing serine/threonine-protein kinase (Homo sapiens, UniProt Q96RG2)
[6] = biological target: ATP-dependent RNA helicase DDX3X (Homo sapiens, UniProt O00571)
TGF-beta receptor type-2 = TGF-beta receptor type-2 (Homo sapiens, UniProt P37173)
Further: in the data inactive means no Kd found up to 30 µM.

Sequence of PAS domain-containing serine/threonine-protein kinase (Q96RG2 whole entry, the tested form may be a part): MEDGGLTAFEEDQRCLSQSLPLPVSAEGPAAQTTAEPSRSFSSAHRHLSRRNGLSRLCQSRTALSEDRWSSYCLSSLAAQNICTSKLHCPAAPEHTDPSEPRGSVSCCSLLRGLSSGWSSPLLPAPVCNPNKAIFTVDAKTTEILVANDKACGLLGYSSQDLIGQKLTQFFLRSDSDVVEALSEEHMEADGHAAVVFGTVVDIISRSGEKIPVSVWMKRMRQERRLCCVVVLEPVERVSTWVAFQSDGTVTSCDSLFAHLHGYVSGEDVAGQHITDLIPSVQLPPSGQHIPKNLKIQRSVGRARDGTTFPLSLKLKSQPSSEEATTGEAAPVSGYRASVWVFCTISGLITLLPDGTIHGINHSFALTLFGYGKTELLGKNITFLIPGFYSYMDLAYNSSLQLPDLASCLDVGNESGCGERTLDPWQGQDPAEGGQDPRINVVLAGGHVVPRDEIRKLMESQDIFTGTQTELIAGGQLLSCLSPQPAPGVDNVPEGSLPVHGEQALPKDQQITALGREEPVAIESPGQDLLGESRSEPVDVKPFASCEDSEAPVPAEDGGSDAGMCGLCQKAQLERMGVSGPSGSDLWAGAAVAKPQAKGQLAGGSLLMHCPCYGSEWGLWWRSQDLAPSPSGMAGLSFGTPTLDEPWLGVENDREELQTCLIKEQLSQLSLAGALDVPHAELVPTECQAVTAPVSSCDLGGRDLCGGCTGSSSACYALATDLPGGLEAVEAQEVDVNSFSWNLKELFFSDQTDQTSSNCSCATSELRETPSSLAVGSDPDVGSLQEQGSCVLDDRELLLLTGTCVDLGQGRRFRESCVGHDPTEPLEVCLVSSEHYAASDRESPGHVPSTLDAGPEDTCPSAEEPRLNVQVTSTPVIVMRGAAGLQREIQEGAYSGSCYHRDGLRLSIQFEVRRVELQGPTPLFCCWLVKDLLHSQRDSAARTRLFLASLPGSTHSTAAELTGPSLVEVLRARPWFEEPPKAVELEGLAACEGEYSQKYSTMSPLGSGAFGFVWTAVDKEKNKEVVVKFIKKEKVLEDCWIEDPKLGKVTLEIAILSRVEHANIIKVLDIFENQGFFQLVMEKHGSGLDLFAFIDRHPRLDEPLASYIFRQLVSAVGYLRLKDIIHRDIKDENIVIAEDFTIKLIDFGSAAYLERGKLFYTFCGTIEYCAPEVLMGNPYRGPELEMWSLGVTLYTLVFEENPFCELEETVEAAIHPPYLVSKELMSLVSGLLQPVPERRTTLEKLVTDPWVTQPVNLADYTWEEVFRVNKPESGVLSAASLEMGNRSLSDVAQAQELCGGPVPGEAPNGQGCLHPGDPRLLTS
Sequence of Proto-oncogene tyrosine-protein kinase receptor Ret (P07949 whole entry): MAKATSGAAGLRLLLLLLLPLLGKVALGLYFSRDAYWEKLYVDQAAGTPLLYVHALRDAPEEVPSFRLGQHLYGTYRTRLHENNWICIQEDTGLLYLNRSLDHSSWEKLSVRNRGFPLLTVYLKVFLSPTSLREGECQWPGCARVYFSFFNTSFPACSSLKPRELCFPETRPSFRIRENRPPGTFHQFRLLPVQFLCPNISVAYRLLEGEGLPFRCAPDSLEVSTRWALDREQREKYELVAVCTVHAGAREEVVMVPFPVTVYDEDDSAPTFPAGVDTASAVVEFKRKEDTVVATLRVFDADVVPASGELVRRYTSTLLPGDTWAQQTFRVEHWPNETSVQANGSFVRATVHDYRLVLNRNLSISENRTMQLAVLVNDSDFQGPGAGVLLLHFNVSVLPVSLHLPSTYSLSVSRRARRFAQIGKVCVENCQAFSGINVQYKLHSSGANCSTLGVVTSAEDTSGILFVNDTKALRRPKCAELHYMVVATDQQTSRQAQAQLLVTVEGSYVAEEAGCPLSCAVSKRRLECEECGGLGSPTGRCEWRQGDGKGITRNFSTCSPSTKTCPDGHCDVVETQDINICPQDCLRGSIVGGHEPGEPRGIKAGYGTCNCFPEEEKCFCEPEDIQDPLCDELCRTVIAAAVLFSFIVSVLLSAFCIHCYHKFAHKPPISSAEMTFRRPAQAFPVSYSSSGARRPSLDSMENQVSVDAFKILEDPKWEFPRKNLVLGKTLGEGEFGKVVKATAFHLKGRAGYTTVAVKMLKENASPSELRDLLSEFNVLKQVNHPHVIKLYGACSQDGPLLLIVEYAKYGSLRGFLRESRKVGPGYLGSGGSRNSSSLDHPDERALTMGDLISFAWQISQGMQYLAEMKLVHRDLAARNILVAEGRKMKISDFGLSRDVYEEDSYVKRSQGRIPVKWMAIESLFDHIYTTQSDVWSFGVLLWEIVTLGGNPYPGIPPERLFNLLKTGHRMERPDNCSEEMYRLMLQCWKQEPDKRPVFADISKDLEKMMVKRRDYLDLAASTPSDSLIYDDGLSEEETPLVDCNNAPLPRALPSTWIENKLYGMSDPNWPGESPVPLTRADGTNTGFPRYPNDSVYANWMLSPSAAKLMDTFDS
Sequence of ATP-dependent RNA helicase DDX3X (O00571 whole entry): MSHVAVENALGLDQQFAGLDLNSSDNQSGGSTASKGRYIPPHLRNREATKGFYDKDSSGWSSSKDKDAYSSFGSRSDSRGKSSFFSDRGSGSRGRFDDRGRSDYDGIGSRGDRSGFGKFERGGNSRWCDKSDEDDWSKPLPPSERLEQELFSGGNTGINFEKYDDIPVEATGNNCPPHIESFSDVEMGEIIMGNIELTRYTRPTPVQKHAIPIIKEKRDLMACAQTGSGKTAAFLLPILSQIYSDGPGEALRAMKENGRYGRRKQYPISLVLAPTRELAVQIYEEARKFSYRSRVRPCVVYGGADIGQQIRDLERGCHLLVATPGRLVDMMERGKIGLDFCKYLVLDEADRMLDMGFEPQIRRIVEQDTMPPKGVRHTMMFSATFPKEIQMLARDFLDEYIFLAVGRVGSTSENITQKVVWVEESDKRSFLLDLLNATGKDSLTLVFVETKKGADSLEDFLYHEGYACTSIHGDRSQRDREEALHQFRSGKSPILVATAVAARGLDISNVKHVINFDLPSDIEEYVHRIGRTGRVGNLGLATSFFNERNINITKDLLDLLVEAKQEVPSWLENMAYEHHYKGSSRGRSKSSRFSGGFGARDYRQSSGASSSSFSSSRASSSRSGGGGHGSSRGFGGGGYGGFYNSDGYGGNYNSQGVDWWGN
Sequence of DnaJ homolog subfamily A member 1 (P31689 whole entry): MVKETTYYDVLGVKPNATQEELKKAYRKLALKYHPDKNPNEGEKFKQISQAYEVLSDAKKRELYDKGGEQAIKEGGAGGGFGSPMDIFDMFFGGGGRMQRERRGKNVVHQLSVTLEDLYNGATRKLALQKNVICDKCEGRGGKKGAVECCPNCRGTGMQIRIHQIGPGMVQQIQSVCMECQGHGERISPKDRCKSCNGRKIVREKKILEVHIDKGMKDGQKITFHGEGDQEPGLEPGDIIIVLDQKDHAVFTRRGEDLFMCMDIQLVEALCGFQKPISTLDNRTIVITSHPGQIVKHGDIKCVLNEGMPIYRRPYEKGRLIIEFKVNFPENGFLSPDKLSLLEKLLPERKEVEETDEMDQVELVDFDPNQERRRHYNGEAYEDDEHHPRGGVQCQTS
Sequence of TGF-beta receptor type-2 (P37173 whole entry): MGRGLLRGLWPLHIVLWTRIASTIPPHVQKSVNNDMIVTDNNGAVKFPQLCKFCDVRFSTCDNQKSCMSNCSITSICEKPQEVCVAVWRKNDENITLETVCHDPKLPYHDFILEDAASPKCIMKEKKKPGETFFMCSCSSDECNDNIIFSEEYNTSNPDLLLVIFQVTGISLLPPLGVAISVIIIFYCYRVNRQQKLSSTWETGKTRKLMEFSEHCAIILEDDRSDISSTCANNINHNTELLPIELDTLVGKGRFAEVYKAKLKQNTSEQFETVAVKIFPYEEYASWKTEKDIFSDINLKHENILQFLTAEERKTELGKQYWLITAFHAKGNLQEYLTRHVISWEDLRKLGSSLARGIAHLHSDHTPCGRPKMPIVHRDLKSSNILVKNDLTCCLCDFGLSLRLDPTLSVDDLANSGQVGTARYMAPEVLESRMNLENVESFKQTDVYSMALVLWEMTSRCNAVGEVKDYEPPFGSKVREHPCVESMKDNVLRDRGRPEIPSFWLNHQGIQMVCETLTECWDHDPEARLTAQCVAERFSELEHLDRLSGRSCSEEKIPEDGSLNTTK
Sequence of Bone morphogenetic protein receptor type-1B (O00238 whole entry): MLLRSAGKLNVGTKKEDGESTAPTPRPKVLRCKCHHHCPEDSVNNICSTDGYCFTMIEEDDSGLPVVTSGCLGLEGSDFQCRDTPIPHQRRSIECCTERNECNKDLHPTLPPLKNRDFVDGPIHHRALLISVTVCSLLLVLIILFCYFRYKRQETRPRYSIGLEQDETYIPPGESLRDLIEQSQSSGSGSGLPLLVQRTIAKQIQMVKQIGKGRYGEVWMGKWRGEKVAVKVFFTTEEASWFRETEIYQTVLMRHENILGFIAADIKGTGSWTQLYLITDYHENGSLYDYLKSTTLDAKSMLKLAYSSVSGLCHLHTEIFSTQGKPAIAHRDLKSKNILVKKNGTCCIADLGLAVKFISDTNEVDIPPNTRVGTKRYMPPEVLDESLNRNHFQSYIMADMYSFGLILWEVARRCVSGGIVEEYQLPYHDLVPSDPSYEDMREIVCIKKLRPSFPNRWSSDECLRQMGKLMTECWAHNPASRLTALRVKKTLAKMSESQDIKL

SMILES | Kd [1] | Kd [2] | Kd [3] | Kd [4] | Kd (Ephrin type-B receptor 6) | Kd [5] | Kd [6] | Kd (TGF-beta receptor type-2) | pKd [2] | pKd [4]
C=CC(=O)Nc1cc2c(Nc3ccc(F)c(Cl)c3)ncnc2cc1C#CC(C)(C)N1CCN(C)CC1 [AV-412 FREE BASE] | > 30 µM (inactive) | > 30 µM (inactive) | > 30 µM (inactive) | > 30 µM (inactive) | > 30 µM (inactive) | > 30 µM (inactive) | > 30 µM (inactive) | > 30 µM (inactive) |  | 
Cn1cnc2c(F)c(Nc3ccc(Br)cc3F)c(C(=O)NOCCO)cc21 [BINIMETINIB] | > 30 µM (inactive) | > 30 µM (inactive) | > 30 µM (inactive) | > 30 µM (inactive) | > 30 µM (inactive) | > 30 µM (inactive) | > 30 µM (inactive) | > 30 µM (inactive) |  | 
COc1c(OCCCN2CCOCC2)ccc2c1N=C(NC(=O)c1cnc(N)nc1)N1CCN=C21 [COPANLISIB] | > 30 µM (inactive) | > 30 µM (inactive) | > 30 µM (inactive) | > 30 µM (inactive) | > 30 µM (inactive) | > 30 µM (inactive) | > 30 µM (inactive) | > 30 µM (inactive) |  | 
CCS(=O)(=O)N1CCN(c2ccc(Nc3ncc(C(N)=O)c(NC4CC4)n3)cc2)CC1 [Cerdulatinib Hydrochloride] | > 30 µM (inactive) | > 30 µM (inactive) | > 30 µM (inactive) | 1.23 µM (active) | > 30 µM (inactive) | > 30 µM (inactive) | > 30 µM (inactive) | > 30 µM (inactive) |  | 
Cc1cccc(-c2nn3c(c2-c2ccnc4ccc(C(N)=O)cc24)CCC3)n1 [GALUNISERTIB] | > 30 µM (inactive) | > 30 µM (inactive) | > 30 µM (inactive) | > 30 µM (inactive) | > 30 µM (inactive) | > 30 µM (inactive) | > 30 µM (inactive) | > 30 µM (inactive) |  | 
COc1ccc(S(=O)(=O)N(C(C)=O)c2ccccc2/C=C/c2cc[n+]([O-])cc2)cc1 [HMN-214] | > 30 µM (inactive) | > 30 µM (inactive) | > 30 µM (inactive) | > 30 µM (inactive) | > 30 µM (inactive) | > 30 µM (inactive) | > 30 µM (inactive) | > 30 µM (inactive) |  | 
CNC(=O)c1nn(C)c2c1C(C)(C)Cc1cnc(Nc3ccc(N4CCN(C)CC4)cc3)nc1-2 [MILCICLIB] | > 30 µM (inactive) | > 30 µM (inactive) | > 30 µM (inactive) | 1.32 µM (active) | > 30 µM (inactive) | > 30 µM (inactive) | > 30 µM (inactive) | > 30 µM (inactive) |  | 
NC1(c2ccc(-c3nc4ccn5c(=O)[nH]nc5c4cc3-c3ccccc3)cc2)CCC1 [MK-2206] | > 30 µM (inactive) | > 30 µM (inactive) | > 30 µM (inactive) | > 30 µM (inactive) | > 30 µM (inactive) | > 30 µM (inactive) | > 30 µM (inactive) | > 30 µM (inactive) |  | 
Cn1cc(-c2cnc3ccc4ccc(CS(=O)(=O)NCc5ccccn5)cc4c(=O)c3c2)cn1 [MK-8033] | > 30 µM (inactive) | > 30 µM (inactive) | > 30 µM (inactive) | > 30 µM (inactive) | > 30 µM (inactive) | > 30 µM (inactive) | > 30 µM (inactive) | > 30 µM (inactive) |  | 
FC(F)(F)c1ccc(/C=C/c2nc(COc3ccc(CCCCn4ccnn4)cc3)co2)cc1 [MUBRITINIB] | > 30 µM (inactive) | > 30 µM (inactive) | > 30 µM (inactive) | > 30 µM (inactive) | > 30 µM (inactive) | > 30 µM (inactive) | > 30 µM (inactive) | > 30 µM (inactive) |  | 
CCOc1cc2ncc(C#N)c(Nc3ccc(F)c(Cl)c3)c2cc1NC(=O)/C=C/CN(C)C [PELITINIB] | > 30 µM (inactive) | > 30 µM (inactive) | > 30 µM (inactive) | > 30 µM (inactive) | > 30 µM (inactive) | > 30 µM (inactive) | > 30 µM (inactive) | > 30 µM (inactive) |  | 
Cc1nc(Nc2n[nH]c3c2CN(C(=O)N[C@H](CN(C)C)c2ccccc2)C3(C)C)c2sccc2n1 [PF-03758309] | > 30 µM (inactive) | > 30 µM (inactive) | > 30 µM (inactive) | 0.728 µM (active) | > 30 µM (inactive) | > 30 µM (inactive) | > 30 µM (inactive) | > 30 µM (inactive) |  | 
Cc1cnc(NC(=O)Nc2cc(Br)c(C)cc2OC[C@@H]2CNCCO2)cn1 [RABUSERTIB] | > 30 µM (inactive) | > 30 µM (inactive) | > 30 µM (inactive) | > 30 µM (inactive) | > 30 µM (inactive) | > 30 µM (inactive) | > 30 µM (inactive) | > 30 µM (inactive) |  | 
N#CC1(c2ccc(NC(=O)c3cccnc3NCc3ccncc3)cc2)CCCC1 [RIVOCERANIB] | > 30 µM (inactive) | > 30 µM (inactive) | > 30 µM (inactive) | 0.111 µM (active) | > 30 µM (inactive) | > 30 µM (inactive) | > 30 µM (inactive) | > 30 µM (inactive) |  | 
O=c1[nH]ccc2cc(OC3CCNCC3)ccc12 [SAR-407899 FREE BASE] | > 30 µM (inactive) | > 30 µM (inactive) | > 30 µM (inactive) | > 30 µM (inactive) | > 30 µM (inactive) | > 30 µM (inactive) | > 30 µM (inactive) | > 30 µM (inactive) |  | 
CN1CCN(CCOc2cc(OC3CCOCC3)c3c(Nc4c(Cl)ccc5c4OCO5)ncnc3c2)CC1 [SARACATINIB] | > 30 µM (inactive) |  | > 30 µM (inactive) |  | 3.6 µM (active) | > 30 µM (inactive) | > 30 µM (inactive) | > 30 µM (inactive) | 7.54 | 6.75
Cn1cc(-c2cnn3c(N)c(Br)c([C@@H]4CCCNC4)nc23)cn1 [SCH-900776] | > 30 µM (inactive) | > 30 µM (inactive) | > 30 µM (inactive) |  | > 30 µM (inactive) | > 30 µM (inactive) | > 30 µM (inactive) | 4.72 µM (active) |  | 5.59
CO[C@H]1C[C@@H]2CC[C@@H](C)[C@@](O)(O2)C(=O)C(=O)N2CCCC[C@H]2C(=O)O[C@H]([C@H](C)C[C@@H]2CC[C@@H](O)[C@H](OC)C2)CC(=O)[C@H](C)/C=C(\C)[C@@H](O)[C@@H](OC)C(=O)[C@H](C)C[C@H](C)/C=C/C=C/C=C/1C [SIROLIMUS] | > 30 µM (inactive) | > 30 µM (inactive) | > 30 µM (inactive) | > 30 µM (inactive) | > 30 µM (inactive) | > 30 µM (inactive) | > 30 µM (inactive) | > 30 µM (inactive) |  | 
